Experimental data as given in ChEMBL document CHEMBL1138999, “Synthesis and in vitro evaluation of novel derivatives of diphenylsulfide as serotonin transporter ligands” (Bioorg Med Chem Lett, 2006).

Assays:
[1] = target: T1, Sodium-dependent serotonin transporter (Homo sapiens, UniProt P31645); assay: Inhibitory activity against SERT
[2] = target: Sodium-dependent dopamine transporter (Homo sapiens, UniProt Q01959); assay: Inhibitory activity against DAT
[3] = target: Sodium-dependent noradrenaline transporter (Homo sapiens, UniProt P23975); assay: Inhibitory activity against NET
[4] = target: T1, Sodium-dependent serotonin transporter; assay: Displacement of [3H]paroxetine from SERT

Sodium-dependent dopamine transporter, sequence (Q01959 whole entry): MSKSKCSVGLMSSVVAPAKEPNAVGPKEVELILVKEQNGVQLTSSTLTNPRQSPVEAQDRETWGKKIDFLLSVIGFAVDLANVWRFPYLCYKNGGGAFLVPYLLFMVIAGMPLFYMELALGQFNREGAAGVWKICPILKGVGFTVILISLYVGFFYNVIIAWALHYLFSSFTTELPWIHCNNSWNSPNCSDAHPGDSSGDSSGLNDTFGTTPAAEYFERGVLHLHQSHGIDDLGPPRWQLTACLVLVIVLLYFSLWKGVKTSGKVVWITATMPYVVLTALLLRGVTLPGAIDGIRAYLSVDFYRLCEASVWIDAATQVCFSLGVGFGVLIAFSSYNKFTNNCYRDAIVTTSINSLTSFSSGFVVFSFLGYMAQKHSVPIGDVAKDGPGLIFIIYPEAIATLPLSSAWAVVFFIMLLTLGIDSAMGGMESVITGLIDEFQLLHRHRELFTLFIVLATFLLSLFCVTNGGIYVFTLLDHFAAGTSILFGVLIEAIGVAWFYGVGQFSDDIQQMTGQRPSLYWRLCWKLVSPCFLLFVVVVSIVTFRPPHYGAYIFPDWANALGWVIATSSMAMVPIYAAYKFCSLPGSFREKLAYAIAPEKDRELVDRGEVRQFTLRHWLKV
T1 sequence (P31645 whole entry): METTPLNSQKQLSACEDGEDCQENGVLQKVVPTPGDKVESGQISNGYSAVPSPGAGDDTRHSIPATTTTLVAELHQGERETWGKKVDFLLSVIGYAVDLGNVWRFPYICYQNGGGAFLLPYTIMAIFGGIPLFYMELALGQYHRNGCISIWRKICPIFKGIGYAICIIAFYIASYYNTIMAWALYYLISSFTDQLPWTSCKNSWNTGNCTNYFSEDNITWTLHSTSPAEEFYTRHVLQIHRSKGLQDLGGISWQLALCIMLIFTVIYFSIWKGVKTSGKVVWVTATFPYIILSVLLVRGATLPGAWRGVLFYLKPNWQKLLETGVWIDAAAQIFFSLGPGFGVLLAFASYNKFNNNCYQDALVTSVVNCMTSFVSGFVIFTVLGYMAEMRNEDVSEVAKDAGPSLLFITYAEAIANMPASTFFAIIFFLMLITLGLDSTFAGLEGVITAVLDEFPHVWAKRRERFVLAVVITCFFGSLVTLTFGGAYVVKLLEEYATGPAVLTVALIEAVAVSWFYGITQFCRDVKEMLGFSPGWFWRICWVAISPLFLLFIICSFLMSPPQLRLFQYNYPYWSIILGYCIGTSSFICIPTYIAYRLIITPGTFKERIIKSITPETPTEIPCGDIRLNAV
Sodium-dependent noradrenaline transporter, sequence (P23975 whole entry): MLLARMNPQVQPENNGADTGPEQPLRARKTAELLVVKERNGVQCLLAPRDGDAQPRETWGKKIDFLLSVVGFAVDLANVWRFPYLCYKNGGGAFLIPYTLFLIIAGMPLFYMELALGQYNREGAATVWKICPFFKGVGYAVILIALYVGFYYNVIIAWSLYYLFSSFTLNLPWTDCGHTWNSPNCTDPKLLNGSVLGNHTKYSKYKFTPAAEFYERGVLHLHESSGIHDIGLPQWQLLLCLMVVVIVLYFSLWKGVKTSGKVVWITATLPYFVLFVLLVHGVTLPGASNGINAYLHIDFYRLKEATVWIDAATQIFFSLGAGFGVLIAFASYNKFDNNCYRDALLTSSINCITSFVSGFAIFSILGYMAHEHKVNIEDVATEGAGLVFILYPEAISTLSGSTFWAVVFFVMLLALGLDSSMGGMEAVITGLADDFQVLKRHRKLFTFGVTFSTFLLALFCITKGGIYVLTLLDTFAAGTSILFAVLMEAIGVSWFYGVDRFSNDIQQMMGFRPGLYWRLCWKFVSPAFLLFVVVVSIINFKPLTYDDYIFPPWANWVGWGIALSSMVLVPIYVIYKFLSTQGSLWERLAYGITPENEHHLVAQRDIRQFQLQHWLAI

Compound	IC50 [1]	IC50 [2]	IC50 [3]	Ki [4]
Cc1ccc(C(=O)c2ccccc2CN(C)C)c(N)c1	> 100 nM	> 100 nM	> 100 nM	–
Cc1ccc([S+]([O-])c2ccccc2CN(C)C)c(N)c1 (centres undefined)	–	> 100 nM	> 100 nM	4.15 nM
CCN(c1ccc(C)cc1N)c1ccccc1CN(C)C	> 100 nM	> 100 nM	> 100 nM	–
Cc1ccc(N(c2ccccc2)c2ccccc2CN(C)C)c(N)c1	> 100 nM	> 100 nM	> 100 nM	–
COC(c1ccc(C)cc1N)c1ccccc1CN(C)C (centres undefined)	> 100 nM	> 100 nM	> 100 nM	–
Cc1ccc(N(Cc2ccccc2)c2ccccc2CN(C)C)c(N)c1	> 100 nM	> 100 nM	> 100 nM	–
Cc1ccc(S(=O)(=O)c2ccccc2CN(C)C)c(N)c1	> 100 nM	> 100 nM	> 100 nM	–

The next lines start with the values.

IC50 [1]	IC50 [2]	IC50 [3]	Ki [4]	Compound
> 100 nM	> 100 nM	> 100 nM	–	Cc1ccc(N)c(-c2ccccc2CN(C)C)c1
–	> 100 nM	> 100 nM	0.53 nM	Cc1ccc(Oc2ccccc2CN(C)C)c(N)c1
> 100 nM	> 100 nM	> 100 nM	–	Cc1ccc(C(O)c2ccccc2CN(C)C)c(N)c1 (centres undefined)
–	> 100 nM	> 100 nM	1.65 nM	Cc1ccc(Sc2ccccc2CN(C)C)c(N)c1
> 100 nM	> 100 nM	> 100 nM	–	Cc1ccc(N(C)c2ccccc2CN(C)C)c(N)c1
–	> 100 nM	> 100 nM	10.3 nM	Cc1ccc(Nc2ccccc2CN(C)C)c(N)c1
